Experiment: xn = mol fraction of the nth substance listed
Conditions: for speed of sound: 100 kPa, Frequency=3 MHz, Sing-around technique in a fixed-path interferometer; for speed of sound / viscosity / mass density: Liquid; for viscosity / mass density: 102 kPa; for viscosity: Concentric cylinders viscometry; for mass density: Vibrating tube method; for surface tension liquid-gas: 294.5 K, Pendant drop shape

CCCCc1ccccc1 [butylbenzene] + CCCCCCCCCCCCCC
Conditions | mass density [kg/m3] | speed of sound [m/s] | viscosity [mPa·s]
293.15 K, x1 = 0.1414 | 770.92 | 1330.1 | 2.06
293.15 K, x1 = 0.2704 | 779.61 | 1329.5 | 1.86
293.15 K, x1 = 0.3915 | 788.74 | 1329.7 | 1.69
293.15 K, x1 = 0.4988 | 797.91 | 1330.9 | 1.55
293.15 K, x1 = 0.5961 | 807.14 | 1332.5 | 1.44
293.15 K, x1 = 0.6892 | 817.1 | 1334.9 | 1.34
293.15 K, x1 = 0.7751 | 827.32 | 1338.1 | 1.25
293.15 K, x1 = 0.8553 | 837.74 | 1342.1 | 1.18
293.15 K, x1 = 0.9299 | 849.02 | 1347.7 | 1.12
293.15 K, x1 = 1 | 860.51 | 1353.7 | 1.05
303.15 K, x1 = 0.1414 | 763.79 | 1292.6 | 1.7
303.15 K, x1 = 0.2704 | 772.41 | 1292.1 | 1.54
303.15 K, x1 = 0.3915 | 781.46 | 1292.3 | 1.42
303.15 K, x1 = 0.4988 | 790.54 | 1293.4 | 1.31
303.15 K, x1 = 0.5961 | 799.68 | 1294.9 | 1.22
303.15 K, x1 = 0.6892 | 809.54 | 1297.2 | 1.14
303.15 K, x1 = 0.7751 | 819.66 | 1300.2 | 1.07
303.15 K, x1 = 0.8553 | 829.96 | 1303.8 | 1.02
303.15 K, x1 = 0.9299 | 841.12 | 1309.2 | 0.965
303.15 K, x1 = 1 | 852.49 | 1314.9 | 0.91
313.15 K, x1 = 0.1414 | 756.65 | 1255.6 | 1.42
313.15 K, x1 = 0.2704 | 765.18 | 1255.1 | 1.31
313.15 K, x1 = 0.3915 | 774.14 | 1255.3 | 1.21
313.15 K, x1 = 0.4988 | 783.14 | 1256.3 | 1.12
313.15 K, x1 = 0.5961 | 792.18 | 1257.6 | 1.05
313.15 K, x1 = 0.6892 | 801.94 | 1259.8 | 0.987
313.15 K, x1 = 0.7751 | 811.95 | 1262.7 | 0.932
313.15 K, x1 = 0.8553 | 822.15 | 1266.1 | 0.886
313.15 K, x1 = 0.9299 | 833.19 | 1271.2 | 0.843
313.15 K, x1 = 1 | 844.43 | 1276.6 | 0.801
323.15 K, x1 = 0.1414 | 749.49 | 1219.1 | 1.21
323.15 K, x1 = 0.2704 | 757.94 | 1218.6 | 1.12
323.15 K, x1 = 0.3915 | 766.81 | 1218.7 | 1.04
323.15 K, x1 = 0.4988 | 775.71 | 1219.6 | 0.973
323.15 K, x1 = 0.5961 | 784.66 | 1220.9 | 0.915
323.15 K, x1 = 0.6892 | 794.32 | 1223 | 0.863
323.15 K, x1 = 0.7751 | 804.22 | 1225.6 | 0.818
323.15 K, x1 = 0.8553 | 814.31 | 1228.9 | 0.78
323.15 K, x1 = 0.9299 | 825.22 | 1233.7 | 0.744
323.15 K, x1 = 1 | 836.34 | 1238.7 | 0.713
333.15 K, x1 = 0.1414 | 742.31 | 1183.2 | 1.05
333.15 K, x1 = 0.2704 | 750.67 | 1182.7 | 0.973
333.15 K, x1 = 0.3915 | 759.45 | 1182.7 | 0.908
333.15 K, x1 = 0.4988 | 768.25 | 1183.5 | 0.853
333.15 K, x1 = 0.5961 | 777.11 | 1184.7 | 0.806
333.15 K, x1 = 0.6892 | 786.65 | 1186.6 | 0.762
333.15 K, x1 = 0.7751 | 796.45 | 1189.1 | 0.725
333.15 K, x1 = 0.8553 | 806.42 | 1192.1 | 0.691
333.15 K, x1 = 0.9299 | 817.22 | 1196.7 | 0.662
333.15 K, x1 = 1 | 828.21 | 1201.4 | 0.636
343.15 K, x1 = 0.1414 | 735.2 | – | 0.912
343.15 K, x1 = 0.2704 | 743.4 | – | 0.852
343.15 K, x1 = 0.3915 | 752 | – | 0.8
343.15 K, x1 = 0.4988 | 760.8 | – | 0.753
343.15 K, x1 = 0.5961 | 769.6 | – | 0.716
343.15 K, x1 = 0.6892 | 779 | – | 0.678
343.15 K, x1 = 0.7751 | 788.7 | – | 0.647
343.15 K, x1 = 0.8553 | 798.5 | – | 0.619
343.15 K, x1 = 0.9299 | 809.2 | – | 0.592
343.15 K, x1 = 1 | 819.9 | – | 0.571
353.15 K, x1 = 0.1414 | 728 | – | 0.804
353.15 K, x1 = 0.2704 | 736.1 | – | 0.754
353.15 K, x1 = 0.3915 | 744.6 | – | 0.711
353.15 K, x1 = 0.4988 | 753.3 | – | 0.671
353.15 K, x1 = 0.5961 | 762 | – | 0.639
353.15 K, x1 = 0.6892 | 771.3 | – | 0.608
353.15 K, x1 = 0.7751 | 780.9 | – | 0.581
353.15 K, x1 = 0.8553 | 790.6 | – | 0.557
353.15 K, x1 = 0.9299 | 801.1 | – | 0.534
353.15 K, x1 = 1 | 811.7 | – | 0.516
363.15 K, x1 = 0.1414 | 720.7 | – | 0.715
363.15 K, x1 = 0.2704 | 728.7 | – | 0.674
363.15 K, x1 = 0.3915 | 737.1 | – | 0.637
363.15 K, x1 = 0.4988 | 745.7 | – | 0.604
363.15 K, x1 = 0.5961 | 754.3 | – | 0.576
363.15 K, x1 = 0.6892 | 763.5 | – | 0.55
363.15 K, x1 = 0.7751 | 773 | – | 0.526
363.15 K, x1 = 0.8553 | 782.5 | – | 0.505
363.15 K, x1 = 0.9299 | 793 | – | 0.486
363.15 K, x1 = 1 | 803.4 | – | 0.469
373.15 K, x1 = 0.1414 | 713.3 | – | 0.641
373.15 K, x1 = 0.2704 | 721.2 | – | 0.606
373.15 K, x1 = 0.3915 | 729.5 | – | 0.575
373.15 K, x1 = 0.4988 | 738 | – | 0.547
373.15 K, x1 = 0.5961 | 746.5 | – | 0.523
373.15 K, x1 = 0.6892 | 755.6 | – | 0.5
373.15 K, x1 = 0.7751 | 764.9 | – | 0.48
373.15 K, x1 = 0.8553 | 774.3 | – | 0.461
373.15 K, x1 = 0.9299 | 784.7 | – | 0.444
373.15 K, x1 = 1 | 795 | – | 0.43

Conditions | surface tension liquid-gas [mN/m]
x1 = 0.1414 | 26.5
x1 = 0.2704 | 26.7
x1 = 0.3915 | 27
x1 = 0.4988 | 27
x1 = 0.5961 | 27.3
x1 = 0.6892 | 27.3
x1 = 0.7751 | 27.8
x1 = 0.8553 | 28
x1 = 0.9299 | 28.3
